Measurements published in US8959984B2, “Proteome-wide quantification of small molecule binding to cellular target proteins” (priority 2007, dated 2015).
pKi: −log10 of the molar value.

Experiments:
Assay in all cases: binding to VI16742 beads (HeLa lysate, SILAC MS)
ROCK2 (IPI00307155) = molecular target: T1, ROCK2 (IPI00307155) (Homo sapiens, UniProt O75116)
T1 construct: endogenous in cells; host or cells: HeLa S3
Description: (§1) In an alternative implementation of the chemical proteomic approach according to the invention, the broadly-selective pyrido[2,3-d]pyrimidine-based kinase inhibitor VI16742 has been used for affinity capture (FIG. 10a). […] As shown by gene ontology analysis, the corresponding molecular functions were highly over-represented in proteins specifically retained by the inhibitor resin (FIG. 10b).

SLK (IPI00022827) = molecular target: T2, SLK (IPI00022827) (Homo sapiens, UniProt Q9H2G2)
T2 construct: endogenous in cells; host or cells: HeLa S3
Description: as §1

MAP2K3 (IPI00218858) = molecular target: T3, MAP2K3 (IPI00218858) (Homo sapiens, UniProt P46734)
T3 construct: endogenous in cells; host or cells: HeLa S3
T3 sequence (P46734 1-347): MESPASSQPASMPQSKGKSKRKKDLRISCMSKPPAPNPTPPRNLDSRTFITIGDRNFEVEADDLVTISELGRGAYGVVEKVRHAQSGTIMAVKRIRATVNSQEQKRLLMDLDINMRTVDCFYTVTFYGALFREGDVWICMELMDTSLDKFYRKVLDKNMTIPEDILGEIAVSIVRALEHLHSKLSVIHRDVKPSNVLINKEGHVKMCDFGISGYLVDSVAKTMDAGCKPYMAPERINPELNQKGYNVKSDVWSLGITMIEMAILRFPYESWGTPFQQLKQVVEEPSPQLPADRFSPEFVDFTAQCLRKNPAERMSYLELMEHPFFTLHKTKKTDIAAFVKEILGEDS
Description: as §1

[1] = molecular target: T4, PKACa (PRKACA, IPI00396630) (Homo sapiens, UniProt P17612)
T4 construct: endogenous in cells; host or cells: HeLa S3
Description: as §1

AGL (IPI00328318) = molecular target: T5, AGL (IPI00328318) (Homo sapiens, UniProt P35573)
T5 construct: endogenous in cells; host or cells: HeLa S3
Description: as §1

[2] = molecular target: T6, CRK7 (CRKRS, IPI00868781) (Homo sapiens, UniProt Q9NYV4)
T6 construct: endogenous in cells; host or cells: HeLa S3 cell lysate
Description: as §1

SART3 (IPI00006025) = molecular target: T7, SART3 (IPI00006025) (Homo sapiens, UniProt Q15020)
T7 construct: endogenous in cells; host or cells: HeLa S3
T7 sequence (Q15020 1-963): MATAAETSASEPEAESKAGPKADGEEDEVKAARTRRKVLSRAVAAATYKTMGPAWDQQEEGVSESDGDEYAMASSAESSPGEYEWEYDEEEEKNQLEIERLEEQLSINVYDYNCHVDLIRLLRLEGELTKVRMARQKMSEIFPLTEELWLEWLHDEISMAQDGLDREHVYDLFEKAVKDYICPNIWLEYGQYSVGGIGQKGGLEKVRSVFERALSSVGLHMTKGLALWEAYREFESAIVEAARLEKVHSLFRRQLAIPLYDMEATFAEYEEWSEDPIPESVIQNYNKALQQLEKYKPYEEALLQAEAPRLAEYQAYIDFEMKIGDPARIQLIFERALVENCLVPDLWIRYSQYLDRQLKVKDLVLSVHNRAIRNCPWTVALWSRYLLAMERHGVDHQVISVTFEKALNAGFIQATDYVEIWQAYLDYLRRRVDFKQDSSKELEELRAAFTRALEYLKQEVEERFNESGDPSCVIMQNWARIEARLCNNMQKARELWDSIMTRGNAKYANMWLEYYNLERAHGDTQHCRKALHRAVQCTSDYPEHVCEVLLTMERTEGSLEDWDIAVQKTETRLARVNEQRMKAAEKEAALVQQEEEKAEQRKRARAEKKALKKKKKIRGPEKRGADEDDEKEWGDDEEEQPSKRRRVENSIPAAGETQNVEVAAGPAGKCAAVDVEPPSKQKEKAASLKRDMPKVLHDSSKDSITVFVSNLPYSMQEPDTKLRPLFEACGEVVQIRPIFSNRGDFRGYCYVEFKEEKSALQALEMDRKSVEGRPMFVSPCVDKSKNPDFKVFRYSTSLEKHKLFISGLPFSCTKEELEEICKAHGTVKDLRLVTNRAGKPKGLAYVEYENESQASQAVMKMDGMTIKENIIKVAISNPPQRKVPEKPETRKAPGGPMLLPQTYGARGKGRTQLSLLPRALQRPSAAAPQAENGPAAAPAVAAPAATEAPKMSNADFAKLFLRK
Description: as §1

RPSA (IPI00413108) = molecular target: T8, RPSA (IPI00413108) (Homo sapiens, UniProt P08865)
T8 construct: endogenous in cells; host or cells: HeLa S3
Description: as §1

[3] = molecular target: T9, PKACb (PRKACB, IPI00376119) (Homo sapiens, UniProt P22694)
T9 construct: endogenous in cells; host or cells: HeLa S3
Description: as §1

DAPK2 (IPI00033388) = molecular target: T10, DAPK2 (IPI00033388) (Homo sapiens, UniProt Q9UIK4)
T10 construct: endogenous in cells; host or cells: HeLa S3
Description: as §1

[4] = molecular target: T11, NDR1 (STK38, IPI00027251) (Homo sapiens, UniProt Q15208)
T11 construct: endogenous in cells; host or cells: HeLa S3 cell lysate
Description: as §1

PDE4D (IPI00002449) = molecular target: T12, PDE4D (IPI00002449) (Homo sapiens, UniProt Q08499)
T12 construct: endogenous in cells; host or cells: HeLa S3 cell lysate
Description: as §1

[5] = control beads vs first incubation

T1 sequence (O75116 whole entry): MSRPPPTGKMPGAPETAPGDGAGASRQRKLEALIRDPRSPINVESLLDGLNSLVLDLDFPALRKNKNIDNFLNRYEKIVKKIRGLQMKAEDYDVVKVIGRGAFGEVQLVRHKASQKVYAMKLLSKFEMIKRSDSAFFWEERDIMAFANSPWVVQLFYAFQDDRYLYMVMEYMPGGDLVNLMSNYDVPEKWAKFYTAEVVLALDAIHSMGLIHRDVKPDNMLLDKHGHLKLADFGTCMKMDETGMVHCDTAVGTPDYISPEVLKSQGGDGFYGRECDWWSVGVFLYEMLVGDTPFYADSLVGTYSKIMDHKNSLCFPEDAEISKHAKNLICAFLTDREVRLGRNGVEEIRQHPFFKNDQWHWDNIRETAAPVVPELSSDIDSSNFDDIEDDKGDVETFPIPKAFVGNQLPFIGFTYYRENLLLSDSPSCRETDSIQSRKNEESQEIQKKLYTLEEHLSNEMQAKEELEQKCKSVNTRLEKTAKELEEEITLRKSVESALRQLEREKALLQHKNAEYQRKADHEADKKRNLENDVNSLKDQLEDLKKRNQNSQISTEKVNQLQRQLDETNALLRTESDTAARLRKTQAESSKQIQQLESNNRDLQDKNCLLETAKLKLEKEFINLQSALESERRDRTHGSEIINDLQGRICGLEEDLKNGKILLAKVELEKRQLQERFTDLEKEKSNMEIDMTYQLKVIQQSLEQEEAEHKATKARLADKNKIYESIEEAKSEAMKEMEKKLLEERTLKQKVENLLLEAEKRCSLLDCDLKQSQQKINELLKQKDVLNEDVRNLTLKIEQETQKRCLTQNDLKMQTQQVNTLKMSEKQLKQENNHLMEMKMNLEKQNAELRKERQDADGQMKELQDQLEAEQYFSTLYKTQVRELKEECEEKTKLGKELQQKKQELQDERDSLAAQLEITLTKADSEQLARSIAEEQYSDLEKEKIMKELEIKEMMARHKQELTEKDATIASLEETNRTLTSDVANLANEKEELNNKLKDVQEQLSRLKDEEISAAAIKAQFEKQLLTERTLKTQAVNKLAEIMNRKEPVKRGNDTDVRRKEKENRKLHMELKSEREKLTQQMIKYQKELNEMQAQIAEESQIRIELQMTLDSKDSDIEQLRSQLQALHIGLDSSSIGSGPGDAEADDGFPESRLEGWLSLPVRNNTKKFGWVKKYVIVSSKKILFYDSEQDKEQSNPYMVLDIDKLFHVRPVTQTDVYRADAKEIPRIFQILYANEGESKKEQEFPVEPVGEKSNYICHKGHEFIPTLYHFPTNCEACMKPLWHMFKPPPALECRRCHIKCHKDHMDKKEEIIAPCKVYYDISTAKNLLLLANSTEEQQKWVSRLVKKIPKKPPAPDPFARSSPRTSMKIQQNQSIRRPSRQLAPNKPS
T12 sequence (Q08499 whole entry): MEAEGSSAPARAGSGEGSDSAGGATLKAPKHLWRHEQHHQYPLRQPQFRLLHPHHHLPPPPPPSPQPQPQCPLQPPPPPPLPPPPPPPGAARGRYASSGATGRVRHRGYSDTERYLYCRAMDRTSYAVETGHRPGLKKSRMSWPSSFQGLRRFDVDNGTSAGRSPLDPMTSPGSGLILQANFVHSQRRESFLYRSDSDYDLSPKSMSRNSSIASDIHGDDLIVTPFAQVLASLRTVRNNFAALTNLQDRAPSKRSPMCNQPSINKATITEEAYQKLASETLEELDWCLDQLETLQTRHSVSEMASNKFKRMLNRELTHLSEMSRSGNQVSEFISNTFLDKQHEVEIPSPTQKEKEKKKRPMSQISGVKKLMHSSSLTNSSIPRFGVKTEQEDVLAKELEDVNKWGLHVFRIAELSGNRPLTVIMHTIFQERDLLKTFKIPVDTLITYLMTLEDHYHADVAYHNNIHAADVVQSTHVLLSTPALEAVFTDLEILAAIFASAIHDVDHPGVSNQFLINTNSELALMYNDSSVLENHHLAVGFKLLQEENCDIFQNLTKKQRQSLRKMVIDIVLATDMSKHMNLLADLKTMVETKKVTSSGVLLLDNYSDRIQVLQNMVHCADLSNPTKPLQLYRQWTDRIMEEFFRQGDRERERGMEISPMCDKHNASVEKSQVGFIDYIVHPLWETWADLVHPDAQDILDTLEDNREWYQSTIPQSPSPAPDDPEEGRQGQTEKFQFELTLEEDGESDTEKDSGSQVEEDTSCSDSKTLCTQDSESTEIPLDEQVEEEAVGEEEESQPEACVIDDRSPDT
T5 sequence (P35573 whole entry): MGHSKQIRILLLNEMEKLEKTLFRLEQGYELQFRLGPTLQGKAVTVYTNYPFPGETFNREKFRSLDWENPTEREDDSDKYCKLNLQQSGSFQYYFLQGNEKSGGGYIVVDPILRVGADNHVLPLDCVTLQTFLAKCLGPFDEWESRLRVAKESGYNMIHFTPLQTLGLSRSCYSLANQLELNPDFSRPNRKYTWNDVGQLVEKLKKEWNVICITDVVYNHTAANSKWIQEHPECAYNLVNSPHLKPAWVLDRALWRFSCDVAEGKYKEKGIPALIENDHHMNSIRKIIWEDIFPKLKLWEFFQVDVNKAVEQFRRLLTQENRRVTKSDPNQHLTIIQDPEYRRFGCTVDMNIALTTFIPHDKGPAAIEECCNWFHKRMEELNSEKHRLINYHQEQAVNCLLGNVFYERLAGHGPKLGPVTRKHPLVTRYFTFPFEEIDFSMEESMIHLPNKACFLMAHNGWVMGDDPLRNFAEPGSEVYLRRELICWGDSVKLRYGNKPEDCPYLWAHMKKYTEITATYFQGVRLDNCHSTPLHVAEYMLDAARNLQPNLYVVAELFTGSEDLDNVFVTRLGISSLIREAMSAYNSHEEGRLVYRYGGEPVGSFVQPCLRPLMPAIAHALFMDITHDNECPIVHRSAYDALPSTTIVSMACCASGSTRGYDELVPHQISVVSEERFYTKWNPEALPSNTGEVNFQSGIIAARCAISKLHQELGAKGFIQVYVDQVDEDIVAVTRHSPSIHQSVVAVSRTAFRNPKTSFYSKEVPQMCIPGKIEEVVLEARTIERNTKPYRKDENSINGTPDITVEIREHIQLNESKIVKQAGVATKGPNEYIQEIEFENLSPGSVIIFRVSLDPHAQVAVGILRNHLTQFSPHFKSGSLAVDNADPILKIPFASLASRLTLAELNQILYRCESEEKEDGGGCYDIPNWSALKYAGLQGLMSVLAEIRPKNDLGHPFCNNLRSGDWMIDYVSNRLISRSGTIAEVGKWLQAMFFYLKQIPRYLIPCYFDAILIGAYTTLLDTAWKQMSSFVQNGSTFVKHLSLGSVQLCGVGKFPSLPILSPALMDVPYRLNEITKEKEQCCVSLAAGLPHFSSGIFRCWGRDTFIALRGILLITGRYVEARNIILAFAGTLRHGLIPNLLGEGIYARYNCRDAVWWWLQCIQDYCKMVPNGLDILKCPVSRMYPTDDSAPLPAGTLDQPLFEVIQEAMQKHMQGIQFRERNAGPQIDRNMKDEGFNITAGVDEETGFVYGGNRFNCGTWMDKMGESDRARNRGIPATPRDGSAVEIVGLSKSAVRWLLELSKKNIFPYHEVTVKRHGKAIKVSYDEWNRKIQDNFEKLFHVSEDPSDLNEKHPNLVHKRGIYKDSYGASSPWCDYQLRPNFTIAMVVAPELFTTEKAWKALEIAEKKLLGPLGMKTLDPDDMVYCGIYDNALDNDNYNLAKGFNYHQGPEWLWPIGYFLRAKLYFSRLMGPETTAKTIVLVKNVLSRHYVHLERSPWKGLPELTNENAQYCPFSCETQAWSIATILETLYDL
T10 sequence (Q9UIK4 whole entry): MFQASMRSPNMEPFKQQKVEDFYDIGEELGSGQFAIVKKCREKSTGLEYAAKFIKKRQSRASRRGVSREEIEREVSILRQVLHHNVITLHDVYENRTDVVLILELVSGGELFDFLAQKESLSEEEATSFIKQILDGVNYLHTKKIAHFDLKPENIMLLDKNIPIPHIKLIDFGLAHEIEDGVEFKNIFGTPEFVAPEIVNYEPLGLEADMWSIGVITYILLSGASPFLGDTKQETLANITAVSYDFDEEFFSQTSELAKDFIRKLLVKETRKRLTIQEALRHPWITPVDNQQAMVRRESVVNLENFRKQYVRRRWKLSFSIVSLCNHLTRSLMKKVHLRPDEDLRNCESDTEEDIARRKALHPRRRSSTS
T11 sequence (Q15208 whole entry): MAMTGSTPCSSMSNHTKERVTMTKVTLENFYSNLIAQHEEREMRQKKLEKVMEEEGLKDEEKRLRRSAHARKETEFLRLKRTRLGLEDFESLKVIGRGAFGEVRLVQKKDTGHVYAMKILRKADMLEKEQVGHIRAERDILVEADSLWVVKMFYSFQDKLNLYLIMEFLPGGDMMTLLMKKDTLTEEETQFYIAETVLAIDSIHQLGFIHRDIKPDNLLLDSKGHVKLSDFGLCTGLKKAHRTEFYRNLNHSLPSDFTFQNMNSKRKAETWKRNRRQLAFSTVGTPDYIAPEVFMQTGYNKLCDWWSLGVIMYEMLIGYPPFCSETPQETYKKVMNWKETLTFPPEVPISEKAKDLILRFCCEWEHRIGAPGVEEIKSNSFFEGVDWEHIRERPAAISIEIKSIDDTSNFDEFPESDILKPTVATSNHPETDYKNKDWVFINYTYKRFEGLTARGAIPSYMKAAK

CC(C)n1c(=O)ccc2cnc(Nc3ccc(OCCN)cc3)nc21 [V16742]
r (3 MG/1 MG LYSATE) (ROCK2 (IPI00307155); 3 mg vs 1 mg lysate): 3.18 | r (5 h/2.5 h INC. TIME) (ROCK2 (IPI00307155); 5 h vs 2.5 h incubation time): 1.74 | rAVERAGE (CTRL/1 INC) (ROCK2 (IPI00307155); [5]): 0.08 | pKi (ROCK2 (IPI00307155); immobilized VI16742): 3.59 | rAVERAGE (2 INC/1 INC) (ROCK2 (IPI00307155); second vs first incubation): 0.83 | r (3 MG/1 MG LYSATE) (SLK (IPI00022827); 3 mg vs 1 mg lysate): 3.22 | r (5 h/2.5 h INC. TIME) (SLK (IPI00022827); 5 h vs 2.5 h incubation time): 1.87 | rAVERAGE (CTRL/1 INC) (SLK (IPI00022827); [5]): 0.05 | pKi (SLK (IPI00022827); immobilized VI16742): 3.66 | rAVERAGE (2 INC/1 INC) (SLK (IPI00022827); second vs first incubation): 0.81 | r (5 h/2.5 h INC. TIME) (MAP2K3 (IPI00218858); 5 h vs 2.5 h incubation time): 1.60 | rAVERAGE (CTRL/1 INC) (MAP2K3 (IPI00218858); [5]): 0.05 | pKi (MAP2K3 (IPI00218858); immobilized VI16742): 3.82 | rAVERAGE (2 INC/1 INC) (MAP2K3 (IPI00218858); second vs first incubation): 0.74 | r (3 MG/1 MG LYSATE) ([1]; 3 mg vs 1 mg lysate): 2.18 | r (5 h/2.5 h INC. TIME) ([1]; 5 h vs 2.5 h incubation time): 1.76 | rAVERAGE (CTRL/1 INC) [1, 5]: 0.04 | pKi ([1]; immobilized VI16742): 3.52 | rAVERAGE (2 INC/1 INC) ([1]; second vs first incubation): 0.85 | rAVERAGE (CTRL/1 INC) (AGL (IPI00328318); [5]): 0.08 | pKi (AGL (IPI00328318); immobilized VI16742): 3.66 | rAVERAGE (2 INC/1 INC) (AGL (IPI00328318); second vs first incubation): 0.81 | r (3 MG/1 MG LYSATE) ([2]; 3 mg vs 1 mg lysate): 3.21 | r (5 h/2.5 h INC. TIME) ([2]; 5 h vs 2.5 h incubation time): 1.04 | rAVERAGE (CTRL/1 INC) [2, 5]: 0.07 | pKi ([2]; immobilized VI16742): 4.04 | rAVERAGE (2 INC/1 INC) ([2]; second vs first incubation): 0.64 | r (3 MG/1 MG LYSATE) (SART3 (IPI00006025); 3 mg vs 1 mg lysate): 2.07 | r (5 h/2.5 h INC. TIME) (SART3 (IPI00006025); 5 h vs 2.5 h incubation time): 0.90 | rAVERAGE (CTRL/1 INC) (SART3 (IPI00006025); [5]): 0.05 | pKi (SART3 (IPI00006025); immobilized VI16742): 3.90 | rAVERAGE (2 INC/1 INC) (SART3 (IPI00006025); second vs first incubation): 0.71 | r (3 MG/1 MG LYSATE) (RPSA (IPI00413108); 3 mg vs 1 mg lysate): 3.92 | r (5 h/2.5 h INC. TIME) (RPSA (IPI00413108); 5 h vs 2.5 h incubation time): 2.26 | rAVERAGE (CTRL/1 INC) (RPSA (IPI00413108); [5]): 0.11 | pKi (RPSA (IPI00413108); immobilized VI16742): 3.73 | rAVERAGE (2 INC/1 INC) (RPSA (IPI00413108); second vs first incubation): 0.78 | rAVERAGE (CTRL/1 INC) [3, 5]: 0.01 | pKi ([3]; immobilized VI16742): 3.41 | rAVERAGE (2 INC/1 INC) ([3]; second vs first incubation): 0.88 | rAVERAGE (CTRL/1 INC) (DAPK2 (IPI00033388); [5]): 0.11 | pKi (DAPK2 (IPI00033388); immobilized VI16742): 3.77 | rAVERAGE (2 INC/1 INC) (DAPK2 (IPI00033388); second vs first incubation): 0.77 | rAVERAGE (CTRL/1 INC) [4, 5]: 0.01 | pKi ([4]; immobilized VI16742): 4.11 | rAVERAGE (2 INC/1 INC) ([4]; second vs first incubation): 0.60 | r (3 MG/1 MG LYSATE) (PDE4D (IPI00002449); 3 mg vs 1 mg lysate): 2.48 | r (5 h/2.5 h INC. TIME) (PDE4D (IPI00002449); 5 h vs 2.5 h incubation time): 1.09 | rAVERAGE (CTRL/1 INC) (PDE4D (IPI00002449); [5]): 0.05 | pKi (PDE4D (IPI00002449); immobilized VI16742): 3.99 | rAVERAGE (2 INC/1 INC) (PDE4D (IPI00002449); second vs first incubation): 0.66
